According to patent publication US20190201508A1, “METHODS FOR TREATING CANCERS USING ACE INHIBITORS, ARB, OR CELECOXIB AND OLMESARTAN” (Marina Biotech, Inc., priority 2016, published 2019):

Legend:
[1] = system: inflammatory breast cancer/SUM149, melanoma/MDA-MB-435 and glioblastoma/U87 xenografts; experiment: Tumor growth suppression across xenograft models (pooled statements); assay type: in vivo, mice; details: for effect on tumor growth (in words): single agents, cancer models studied (breast cancer, melanoma, glioblastoma)
Procedure: (§1) Luciferase-tagged SUM149 and MDA-MB-435 cell lines were used to determine the incidence and the burden of locoregional and systemic spread. Mice were monitored twice a week for 9-16 weeks for percent weight loss, tumor volume and survival outcome. Metastatic tumor burden and incidence was measured as luciferase expression in lymph nodes and lungs and normalized to total protein.
Subcutaneous melanoma xenograft tumor model: MDA-MB-435-Luc: Female SCID mice were implanted with 4×10^6 MDA-MB-435-Luciferase tumor cells in 50% Matrigel subcutaneously on the left flank.
Orthotopic human inflammatory breast cancer model: SUM149-RR: Female CB-17 SCID mice were implanted in the mammary fat pad with 4×10^6 SUM149-RR tumor cells in 50% Matrigel.
T/C (%) was calculated as the mean RTV (relative tumor volume) of treated tumors (T) divided by the mean RTV of control tumors (C)×100%.
(§2) Tumors were monitored 2-3 times per week with digital calipers. Once tumors reached 1500 mm3, the mice were sacrificed. Tumors from MDA-MB-435-Luc and SUM149-RR were snap frozen and ipsilateral lymph nodes and lungs were collected for assessing metastatic burden and incidence by measuring luciferase expression per organ and normalized to total protein. Difference in incidence or burden as compared to the control was assessed by a Fisher exact test, or a Mann-Whitney test.
(§3) Methods: Three anti-hypertensive drugs (Lisinopril [LIS], Olmesartan medoxomil [OLM] and Hydrochlorothiazide [HCTZ]) were evaluated for tumor growth suppression and metastatic spread in xenograft models of inflammatory breast cancer/SUM149, melanoma/MDA-MB-435 and glioblastoma/U87. Luciferase-tagged SUM149 and MDA-MB-435 cell lines were used to determine the incidence and the burden of locoregional and systemic spread. CB-17 SCID mice were implanted either subcutaneously (MDA-MB-435 and U87) or orthotopically (SUM149) with 4×10^6 cancer cells and oral administration of test agents for 3 weeks was initiated on post-tumor inoculation Day 7. Mice were monitored twice a week for 9-16 weeks for percent weight loss, tumor volume and survival outcome. Metastatic tumor burden and incidence was measured as luciferase expression in lymph nodes and lungs and normalized to total protein.
Subcutaneous human melanoma xenograft tumor model: MDA-MB-435-Luciferase: Female SCID mice were implanted with 4×10^6 MDAMB-435-Luc tumor cells in 50% Matrigel subcutaneously on the left flank. Seven days post implantation, tumor-bearing mice in subgroups received either saline, Lisinopril (LIS, 15 mg/kg), Olmesartan (OLM, 30 mg/kg); or Hydrochlorothiazide (HCTZ, 10 mg/kg) for 5 consecutive days for 3 weeks.
Female CB-17 SCID mice were implanted in the mammary fat pad with 4×10^6 SUM149-RR tumor cells in 50% Matrigel. Seven days post implantation, mice in subgroups of 5 received either saline, LIS (15 mg/kg), OLM (30 mg/kg) or HCTZ (10 mg/kg) for 5 days/wk for 3 weeks.
Subcutaneous human U87-MG glioblastoma model: 3×10^6 U87 glioblastoma cells were injected into the right flank of Balb/c nude mice and tumor-bearing (50-250 mm3) mice were randomized into 10 groups (10 mice/group) and the antitumor activities of OLM were evaluated following daily PO administration (30 or 60 mg/kg, QD×21). T/C (%) was calculated as the mean RTV (relative tumor volume) of treated tumors (T) divided by the mean RTV of control tumors (C)×100%.
as §2, with “The tumor was” for “Tumors from MDA-MB-435-Luc and SUM149-RR were”

[2] = system: SUM149-RR tumor cells; experiment: Orthotopic human inflammatory breast cancer model SUM149-RR, lymph node metastatic burden (luciferase); assay type: in vivo, CB-17 SCID mice; details: for change in ILN burden versus control (in words): single agents or combination with CEL
Procedure: as §1, §2
as §3, with “CB-17 SCID mice were implanted either subcutaneously (MDA-MB-435 and U87) or orthotopically (SUM149) with 4×10^6 cancer cells and oral administration of test agents for 3 weeks was initiated on post-tumor inoculation Day 7.” left out
Seven days post implantation, mice in subgroups of 5 received either saline, LIS (15 mg/kg), OLM (30 mg/kg) or HCTZ (10 mg/kg) for 5 days/wk for 3 weeks.
as §2, with “The tumor was” for “Tumors from MDA-MB-435-Luc and SUM149-RR were”

[3] = system: MDA-MB-435 xenograft; experiment: MDA-MB-435 xenograft tumor growth and tumor burden; assay type: in vivo, CB-17 SCID mice; details: MDA-MB-435 model; LIS 15 mg/kg, 5 consecutive days for 3 weeks
Procedure: as §2
as §3, with “CB-17 SCID mice were implanted either subcutaneously (MDA-MB-435 and U87) or orthotopically (SUM149) with 4×10^6 cancer cells and oral administration of test agents for 3 weeks was initiated on post-tumor inoculation Day 7.” left out
Tumors were monitored 2-3 times per week with digital calipers. Once tumors reached 1500 mm3, the mice were sacrificed.

[4] = system: tumor blood vessels (BV); experiment: Tumor blood vessel density and normalization (FIG. 6A/6B); assay type: in vivo; details: control tumors had low BV density and necrosis

SMILES | effect on tumor growth (in words) [1] | effect on tumor growth (in words) ([1]; listed as HTCZ) | change in ILN burden versus control (in words) [2] | reduction in tumor burden [3] | effect on tumor growth (in words) ([1]; listed as Lisinopril) | effect on tumor blood vessels (BV) ([4]; FIG. 6A, single agents) | effect on tumor blood vessels (BV) ([4]; FIG. 6B, in combination) | inhibition of tumor growth ([1]; range over all three xenograft models (SUM149, MDA-MB-435, U87)) | effect on tumor growth (in words) ([1]; listed as olmesartan) | fold decrease in ILN tumor burden versus saline control ([2]; OLM 30 mg/kg alone) [fold] | average tumor burden in the ipsilateral lymph nodes (ILN) ([2]; OLM 30 mg/kg, saline control 17.6±8.6, p-value=0.01 by Mann-Whitney test) | lymph node burden ([2]; OLM versus control 17.6±8.6, P=0.01)
NS(=O)(=O)c1cc2c(cc1Cl)NCNS2(=O)=O [HCTZ, Hydrochlorothiazide] | no effect on tumor growth | did not show the same effect | not |  |  |  |  |  |  |  |  | 
NCCCC[C@H](N[C@@H](CCc1ccccc1)C(=O)O)C(=O)N1CCC[C@H]1C(=O)O [LIS, Lisinopril] | significant inhibition of tumor growth |  |  | significant reduction in tumor burden | showed tumor growth suppression | no major effect | no major effect |  |  |  |  | 
CCCc1nc(C(C)(C)O)c(C(=O)OCc2oc(=O)oc2C)n1Cc1ccc(-c2ccccc2-c2nn[nH]n2)cc1 [OLM, (5-methyl-2-oxo-2H-1,3-dioxol-4-yl)methyl 4-(2-hydroxypropan-2-yl)-2-propyl-1-({4-[2-(2H-1,2,3,4-tetrazol-5-yl)phenyl]phenyl}methyl)-1H-imidazole-5-carboxylate] | significant inhibition of tumor growth |  | statistically significant decrease in ILN burden |  |  | facilitated the normalization and stabilization of tumor BVs | facilitated the normalization and stabilization of tumor BVs | 50-61% | showed tumor growth suppression | 7.1 | 2.4±0.6 ×104 RLU per mg of protein | 2.4±0.6 ×10^4 RLU/mg of protein
